Where only a bound is given, the exact number is not on record here.

In ChEMBL document CHEMBL1123770, “Systematic synthesis and biological evaluation of alpha- and beta-D-lyxofuranosyl nucleosides of the five naturally occurring nucleic acid bases” (1987) one finds Virus yield, No. of mice and Survival rate data, which are given here for two molecules.

Test [1] in a line: Inhibitory effect on KOS strain of Herper simplex virus-1 yield, in primary rabbit kidney cell culture 4 ug/mL concentration after 48 hours. Format: functional, Oryctolagus cuniculus.
Test [2] is described as follows: Inhibitory effect on 196 strain of Herper simplex virus-2 yield, in primary rabbit kidney cell culture 40 ug/mL concentration after 48 hours. Type of test: functional, Oryctolagus cuniculus.
The species entered for test [3] is Mus musculus. The test is described as follows: Number of mice normal, without lesion after HSV-2 infection observed from day 0 to day 3. Format: functional.
The nature of test [4]: Inhibitory effect on 196 strain of Herper simplex virus-2 yield, in primary rabbit kidney cell culture 10 ug/mL concentration after 24 hours. Format: functional, Oryctolagus cuniculus.
A short description of test [5]: Inhibitory effect on 196 strain of Herper simplex virus-2 yield, in primary rabbit kidney cell culture 40 ug/mL concentration after 24 hours. Type of test: functional, Oryctolagus cuniculus.
Test [6] is filed under the species Mus musculus. As to the kind of experiment: Survival rate at 20th day expressed as number of mice survived infected with HSV-2; out of 10. Type of test: functional.
The species entered for test [7] is Mus musculus. As to the kind of experiment: Number of mice normal, without lesion after HSV-1 infection observed from day 12 to day 20. Format: functional.
For test [8], the species on record is Mus musculus. The test is described as follows: Number of mice dead, after HSV-1 infection observed from day 12 to day 20. Format: functional.
A short description of test [9]: Inhibitory effect on KOS strain of Herper simplex virus-1 yield, in primary rabbit kidney cell culture at 10 ug/mL concentration after 24 hours. Type of test: functional, Oryctolagus cuniculus.
Test [10] is filed under the species Mus musculus. The test is described as follows: Number of mice normal, without lesion after HSV-2 infection observed from day 12 to day 20. Format: functional.
The species named for test [11] is Mus musculus. As to the kind of experiment: Number of mice dead, after HSV-2 infection observed from day 12 to day 20. Format: functional.
Test [12] is filed under the species Mus musculus. The test is described as follows: Survival rate at 20th day expressed as number of mice survived infected with HSV-1; out of 10. Format: functional.
The nature of test [13]: Inhibitory effect on KOS strain of Herper simplex virus-1 yield, in primary rabbit kidney cell culture 10 ug/mL concentration after 48 hours. Format: functional, Oryctolagus cuniculus.
A short description of test [14]: Inhibitory effect on KOS strain of Herper simplex virus-1 yield, in primary rabbit kidney cell culture 40 ug/mL concentration after 48 hours. Type of test: functional, Oryctolagus cuniculus.
The species entered for test [15] is Mus musculus. The test is described as follows: Number of mice with skin lesions plus paralysis, after HSV-1 infection observed from day 12 to day 20. Type of test: functional.
Test [16] in a line: Inhibitory effect on 196 strain of Herper simplex virus-2 yield, in primary rabbit kidney cell culture 4 ug/mL concentration after 48 hours. Type of test: functional, Oryctolagus cuniculus.
The species named for test [17] is Mus musculus. The test is described as follows: Number of mice normal, without lesion after HSV-1 infection observed from day 0 to day 3. Format: functional.
Test [18] in a line: Inhibitory effect on KOS strain of Herper simplex virus-1 yield, in primary rabbit kidney cell culture at 4 ug/mL concentration after 24 hours. Type of test: functional, Oryctolagus cuniculus.
The nature of test [19]: Inhibitory effect on 196 strain of Herper simplex virus-2 yield, in primary rabbit kidney cell culture 10 ug/mL concentration after 48 hours. Type of test: functional, Oryctolagus cuniculus.
Test [20] in a line: Inhibitory effect on KOS strain of Herper simplex virus-1 yield, in primary rabbit kidney cell culture at 40 ug/mL concentration after 24 hours. Type of test: functional, Oryctolagus cuniculus.
Test [21] in a line: Inhibitory effect on 196 strain of Herper simplex virus-2 yield, in primary rabbit kidney cell culture 4 ug/mL concentration after 24 hours. Type of test: functional, Oryctolagus cuniculus.
Test [22] can be described thus: Inhibitory effect on KOS strain of Herper simplex virus-1 yield, in primary rabbit kidney cell culture 0.1 ug/mL concentration after 48 hours. Format: functional, Oryctolagus cuniculus.
A short description of test [23]: Inhibitory effect on KOS strain of Herper simplex virus-1 yield, in primary rabbit kidney cell culture at 0.1 ug/mL concentration after 24 hours. Type of test: functional, Oryctolagus cuniculus.
Test [24] can be described thus: Inhibitory effect on KOS strain of Herper simplex virus-1 yield, in primary rabbit kidney cell culture 1 ug/mL concentration after 48 hours. Type of test: functional, Oryctolagus cuniculus.
A short description of test [25]: Inhibitory effect on 196 strain of Herper simplex virus-2 yield, in primary rabbit kidney cell culture 0.4 ug/mL concentration after 48 hours. Type of test: functional, Oryctolagus cuniculus.
Test [26] can be described thus: Inhibitory effect on 196 strain of Herper simplex virus-2 yield, in primary rabbit kidney cell culture 1 ug/mL concentration after 48 hours. Type of test: functional, Oryctolagus cuniculus.
A short description of test [27]: Inhibitory effect on KOS strain of Herper simplex virus-1 yield, in primary rabbit kidney cell culture 0.04 ug/mL concentration after 48 hours. Type of test: functional, Oryctolagus cuniculus.
The nature of test [28]: Inhibitory effect on 196 strain of Herper simplex virus-2 yield, in primary rabbit kidney cell culture 1 ug/mL concentration after 24 hours. Type of test: functional, Oryctolagus cuniculus.
Test [29] in a line: Inhibitory effect on 196 strain of Herper simplex virus-2 yield, in primary rabbit kidney cell culture 0.04 ug/mL concentration after 24 hours. Type of test: functional, Oryctolagus cuniculus.
The nature of test [30]: Inhibitory effect on KOS strain of Herper simplex virus-1 yield, in primary rabbit kidney cell culture at 1 ug/mL concentration after 24 hours. Type of test: functional, Oryctolagus cuniculus.
A short description of test [31]: Inhibitory effect on 196 strain of Herper simplex virus-2 yield, in primary rabbit kidney cell culture 0.1 ug/mL concentration after 24 hours. Type of test: functional, Oryctolagus cuniculus.
Test [32] in a line: Inhibitory effect on 196 strain of Herper simplex virus-2 yield, in primary rabbit kidney cell culture 0.4 ug/mL concentration after 24 hours. Format: functional, Oryctolagus cuniculus.
The nature of test [33]: Inhibitory effect on 196 strain of Herper simplex virus-2 yield, in primary rabbit kidney cell culture 0.1 ug/mL concentration after 48 hours. Format: functional, Oryctolagus cuniculus.
Test [34] can be described thus: Inhibitory effect on KOS strain of Herper simplex virus-1 yield, in primary rabbit kidney cell culture 0.4 ug/mL concentration after 48 hours. Format: functional, Oryctolagus cuniculus.
The nature of test [35]: Inhibitory effect on KOS strain of Herper simplex virus-1 yield, in primary rabbit kidney cell culture at 0.04 ug/mL concentration after 24 hours. Format: functional, Oryctolagus cuniculus.
Test [36] is described as follows: Inhibitory effect on KOS strain of Herper simplex virus-1 yield, in primary rabbit kidney cell culture at 0.4 ug/mL concentration after 24 hours. Type of test: functional, Oryctolagus cuniculus.
Test [37] is described as follows: Inhibitory effect on 196 strain of Herper simplex virus-2 yield, in primary rabbit kidney cell culture 0.04 ug/mL concentration after 48 hours. Type of test: functional, Oryctolagus cuniculus.

Take `Nc1ncnc2c1ncn2[C@@H]1O[C@H](CO)[C@@H](O)[C@H]1O` [ADENOSINE]: the Virus yield in [1] is 6.8 log pfu ml-1; in test [2], 4.3 log pfu ml-1; in test [4] it was 4.7 log pfu ml-1; in [5], below 1.6 log pfu ml-1; in [9] it was 5.7 log pfu ml-1; in test [13] it was 6.8 log pfu ml-1. Besides, the Virus yield is given as 5.5 log pfu ml-1 in test [14]; 5.7 log pfu ml-1 in test [16]; 6.7 log pfu ml-1 in [18]; 5.2 log pfu ml-1 in test [19]; 3 log pfu ml-1 in test [20]; 5 log pfu ml-1 in test [21]. Further, the No. of mice in the test filed under Mus musculus [3] is 10; in the test listed under Mus musculus [7], 3; in the test listed under Mus musculus [8], 6; in the test listed under Mus musculus [10], 3; in the test filed under Mus musculus [11] it was 7; in the test filed under Mus musculus [15] it was 1. In the test listed under Mus musculus [17], this molecule had a No. of mice of 10. For the same molecule, the Survival rate in the test filed under Mus musculus [6] came to 3; in the test listed under Mus musculus [12] it was 4.
`Nc1nc2c(ncn2COCCO)c(=O)[nH]1` [ACYCLOVIR]: the Virus yield was 3.3 log pfu ml-1 in test [1]; 5.6 log pfu ml-1 in test [22]; 5.2 log pfu ml-1 in [23]; 5.3 log pfu ml-1 in test [24]; 5 log pfu ml-1 in test [25]; 5.3 log pfu ml-1 in [26]. Besides, the Virus yield worked out at 5.9 log pfu ml-1 in test [27]; 3.1 log pfu ml-1 in [28]; 5.8 log pfu ml-1 in [29]; 3.6 log pfu ml-1 in test [30]; 4.8 log pfu ml-1 in test [31]; 3.8 log pfu ml-1 in [16]. Moreover, the Virus yield in test [32] was 4.1 log pfu ml-1; in test [18] it was 2 log pfu ml-1; in test [33] it was 5.6 log pfu ml-1; in [34] it was 5 log pfu ml-1; in test [35], 5.6 log pfu ml-1; in test [36], 4.1 log pfu ml-1. Besides, the Virus yield in test [21] is on record as below 2 log pfu ml-1; in test [37], 5.7 log pfu ml-1. Moreover, the No. of mice in the test filed under Mus musculus [3] was determined as 10; in the test filed under Mus musculus [7] it was 10; in the test filed under Mus musculus [10], 5; in the test listed under Mus musculus [17], 10. Besides, the Survival rate in the test listed under Mus musculus [6] is 5; in the test listed under Mus musculus [12] it was 10.
